Measured values: patent US8133884B2, “Compounds for the treatment of hepatitis C” (priority 2008, dated 2012)

Assays:
HCV NS5B = target: T1, HCV NS5B (Hepatitis C virus genotype 1b, UniProt Q9WMX2); assay: Modified HCV NS5B RdRp enzyme assay (preincubation protocol); format: biochemical
T1 construct: The protein was expressed with an 18 amino acid C-terminal truncation to enhance the solubility; made in house; host or cells: E. coli BL21(DE3)
Protocol: The cDNA encoding the NS5B protein of HCV, genotype 1b, was cloned into the pET21a expression vector. The protein was expressed with an 18 amino acid C-terminal truncation to enhance the solubility. The E. coli competent cell line BL21(DE3) was used for expression of the protein. Cultures were grown at 37° C. for ˜4 hours until the cultures reached an optical density of 2.0 at 600 nm. The cultures were cooled to 20° C. and induced with 1 mM IPTG. Fresh ampicillin was added to a final concentration of 50 μg/ml and the cells were grown overnight at 20° C.
Cell pellets (3 L) were lysed for purification to yield 15-24 mgs of purified NS5B. The lysis buffer consisted of 20 mM Tris-HCl, pH 7.4, 500 mM NaCl, 0.5% triton X-100, 1 mM DTT, 1 mM EDTA, 20% glycerol, 0.5 mg/ml lysozyme, 10 mM MgCl2, 15 ug/ml deoxyribonuclease I, and Complete TM protease inhibitor tablets (Roche). After addition of the lysis buffer, frozen cell pellets were resuspended using a tissue homogenizer. To reduce the viscosity of the sample, aliquots of the lysate were sonicated on ice using a microtip attached to a Branson sonicator. The sonicated lysate was centrifuged at 100,000×g for 1 hr at 4° C. and filtered through a 0.2 μm filter unit (Corning).
The protein was purified using three sequential chromatography steps: Heparin sepharose CL-6B, polyU sepharose 4B, and […] SP sepharose (Pharmacia). The chromatography buffers were identical to the lysis buffer but contained no lysozyme, deoxyribonuclease I, MgCl2 or protease inhibitor and the NaCl concentration of the buffer was adjusted according to the requirements for charging the protein onto the column. Each column was eluted with a NaCl gradient which varied in length from 5-50 column volumes depending on the column type. After the final chromatography step, the resulting purity of the enzyme is >90% based on SDS-PAGE analysis. The enzyme was aliquoted and stored at −80° C.
HCV RdRp genotype 1b assays were run in a final volume of 60 μl in 96 well plates (Costar 3912). The assay buffer is composed of 20 mM Hepes, pH 7.5, 2.5 mM KCl, 2.5 mM MgCl2, 1 mM DTT, 1.6 U RNAse inhibitor (Promega N2515), 0.1 mg/ml BSA (Promega R3961), and 2% glycerol. All compounds were serially diluted (3-fold) in DMSO and diluted further in water such that the final concentration of DMSO in the assay was 2%. HCV RdRp genotype 1b enzyme was used at a final concentration of 28 nM. A polyA template was used at 6 nM, and a biotinylated oligo-dT12 primer was used at 180 nM final concentration. Template was obtained commercially (Amersham 27-4110). Biotinylated primer was prepared by Sigma Genosys. 3H-UTP was used at 0.6 μCi (0.29 μM total UTP). Reactions were initiated by the addition of enzyme, incubated at 30° C. for 60 min, and stopped by adding 25 μl of 50 mM EDTA containing SPA beads (4 μg/μl, Amersham RPNQ 0007). Plates were read on a Packard TOPCOUNT® NXT after >1 hr incubation at room temperature.
A modified enzyme assay was performed essentially as described for the standard enzyme assay except for the following: The biotinylated oligo dT12 primer was precaptured on streptavidin-coated SPA beads by mixing primer and beads in assay buffer and incubating at room temperature for one hour. Unbound primer was removed after centrifugation. The primer-bound beads were resuspended in 20 mM Hepes buffer, pH 7.5 and used in the assay at final concentrations of 20 nM primer and 0.67 μg/μl beads. Order of addition in the assay: enzyme (14 nM) was added to diluted compound followed by the addition of a mixture of template (0.2 nM), 3H-UTP (0.6 μCi, 0.29 μM), and primer-bound beads, to initiate the reaction; concentrations given are final. Reactions were allowed to proceed for 4 hours at 30° C.
IC50 values for compounds were determined using seven different [I]. IC50 values were calculated from the inhibition using the formula y=A+((B−A)/(1+((C/x)^D))).

HCV replicon = HCV replicon assay (FRET or luciferase reporter); format: cell-based; conditions: Hepatitis C virus, one of the methods described
From the text: To perform the HCV FRET screening assay, 96-well cell culture plates were used, The FRET peptide (Anaspec, Inc.) (Taliani et al., Anal. Biochem., 240:60-67 (1996)) contains a fluorescence donor, EDANS, near one end of the peptide and an acceptor, DABCYL, near the other end. The fluorescence of the peptide is quenched by […] resonance energy transfer (RET) between the donor and the acceptor, but as the NS3 protease cleaves the peptide the products are released from RET quenching and the fluorescence of the donor becomes apparent. The assay reagent was made as follows: 5× cell Luciferase cell culture lysis reagent from Promega (#E153A) diluted to 1× with dH2O, NaCl added to 150 mM final, the FRET peptide diluted to 20 μM final from a 2 mM stock.
To prepare plates, HCV replicon cells, with or without a Renilla luciferase reporter gene, were trypsinized and placed into each well of a 96-well plate with titrated test compounds added in columns 3 through 12; columns 1 and 2 contained a control compound (HCV protease inhibitor), and the bottom row contained cells without compound. The plates were then placed in a CO2 incubator at 37° C.
Subsequent to addition of the test compounds described above (FRET Assay Preparation), at various times the plate was removed and Alamar blue solution (Trek Diagnostics, #00-100) was added per well as a measure of cellular toxicity. After reading in a CYTOFLUOR® 4000 instrument (PE Biosystems), plates were rinsed with PBS and then used for FRET assay by the addition of 30 ul of the FRET peptide assay reagent described above (FRET Assay Preparation) per well. The plate was then placed into the CYTOFLUOR® 4000 instrument which had been set to 340 excite/490 emission, automatic mode for 20 cycles and the plate read in a kinetic mode. Typically, the signal to noise using an endpoint analysis after the reads was at least three-fold. Alternatively, after Alamar blue reading, plates were rinsed with PBS, 50 ul of DMEM (high glucose) without phenol red was added and plates were then used for luciferase assay using the Promega DUAL-GLO® Luciferase Assay System.
Compound analysis was determined by quantification of the relative HCV replicon inhibition and the relative cytotoxicity values. To calculate cytoxicity values, the average Alamar Blue fluorescence signals from the control wells were set as 100% non-toxic. The individual signals in each of the compound test wells were then divided by the average control signal and multiplied by 100% to determine […]. To calculate the HCV replicon inhibition values, an average background value was obtained from the two wells containing the highest amount of HCV protease inhibitor at the end of the assay period. These numbers were similar to those obtained from naïve Huh-7 cells.
The background numbers were then subtracted from the average signal obtained from the control wells and this number was used as 100% activity. The individual signals in each of the compound test wells were then divided by the averaged control values after background subtraction and multiplied by 100% to determine percent activity. EC50 values for a protease inhibitor titration were calculated as the concentration which caused a 50% reduction in FRET or luciferase activity. The two numbers generated for the compound plate, percent cytoxicity and percent activity were used to determine compounds of interest for further analysis.
The HCV replicon luciferase assay was developed to monitor the inhibitory effects of compounds described in the disclosure on HCV viral replication. Utilization of a replicon luciferase reporter assay was first described by Krieger et al (Krieger, N. et al., J. Virology, 75(10):4614-4624 (2001)). HUH-7 cells, constitutively expressing the HCV replicon, were grown in Dulbecco's Modified Eagle Media (DMEM) (Gibco-BRL) containing 10% Fetal calf serum (FCS) (Sigma) and 1 mg/ml G418 (Gibco-BRL). […]

T1 sequence (Q9WMX2 2420-2992): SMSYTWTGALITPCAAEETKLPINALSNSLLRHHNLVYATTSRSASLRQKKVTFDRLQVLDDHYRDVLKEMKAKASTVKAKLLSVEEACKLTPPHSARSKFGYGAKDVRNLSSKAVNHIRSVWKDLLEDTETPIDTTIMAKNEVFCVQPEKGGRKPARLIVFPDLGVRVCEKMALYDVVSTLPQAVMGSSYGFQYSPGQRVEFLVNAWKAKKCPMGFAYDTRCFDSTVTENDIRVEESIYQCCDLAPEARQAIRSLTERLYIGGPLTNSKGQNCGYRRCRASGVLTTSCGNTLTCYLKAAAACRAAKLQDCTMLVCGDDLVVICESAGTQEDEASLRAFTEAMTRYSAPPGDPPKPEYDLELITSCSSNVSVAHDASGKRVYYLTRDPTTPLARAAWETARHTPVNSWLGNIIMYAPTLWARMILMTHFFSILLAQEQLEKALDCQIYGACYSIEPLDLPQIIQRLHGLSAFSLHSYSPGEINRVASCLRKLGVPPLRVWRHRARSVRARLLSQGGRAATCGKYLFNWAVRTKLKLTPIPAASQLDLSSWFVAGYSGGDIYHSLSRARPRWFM

IC50 (HCV NS5B; class symbol) [nM]	Compound	EC50 (HCV replicon; class symbol) [nM]	IC50 (HCV NS5B; exact value) [nM]	EC50 (HCV replicon; exact value) [nM]
1.7 to 500	CCOC(=O)c1cnn(C2CCOCC2)c1C1=Cc2cc(OC)ccc2-c2c(C3CCCCC3)c3ccc(C(=O)NS(=O)(=O)CC(C)C)cc3n2C1			
1.7 to 500	CCOC(=O)c1cnn(C2CCC2)c1C1=Cc2cc(OC)ccc2-c2c(C3CCCCC3)c3ccc(C(=O)NS(=O)(=O)CC(C)C)cc3n2C1			
	COc1ccc2c(c1)C=C(c1ncn(C3CC3)c1C(=O)N1C[C@@H](C)O[C@@H](C)C1)Cn1c-2c(C2CCCCC2)c2ccc(C(=O)NS(=O)(=O)C(C)C)cc21	1.7 to 500		
1.7 to 500	COc1ccc2c(c1)C=C(c1c(C(=O)O)cnn1C1CCC1)Cn1c-2c(C2CCCCC2)c2ccc(C(=O)NS(=O)(=O)C(C)C)cc21			
1.7 to 500	CCOC(=O)c1cnn(C2CCOCC2)c1C1=Cc2cc(OC)ccc2-c2c(C3CCCCC3)c3ccc(C(=O)O)cc3n2C1			
	COc1ccc2c(c1)C=C(c1c(C(=O)N3CCOCC4(CNC4)C3)cnn1C1CCC1)Cn1c-2c(C2CCCCC2)c2ccc(C(=O)NS(=O)(=O)C(C)C)cc21	1.7 to 500		350
1.7 to 500	CCN1CC2CC1CN2C(=O)c1c(C2=Cc3cc(OC)ccc3-c3c(C4CCCCC4)c4ccc(C(=O)NS(=O)(=O)C(C)C)cc4n3C2)ncn1C1CC1 (centres unmarked)			
> 500	CCOC(=O)c1cnn(C2CCC2)c1C1=Cc2cc(OC)ccc2-c2c(C3CCCCC3)c3ccc(C(=O)OC(C)(C)C)cc3n2C1			
1.7 to 500	CCOC(=O)c1cnn(C2CCC2)c1C1=Cc2cc(OC)ccc2-c2c(C3CCCCC3)c3ccc(C(=O)NS(=O)(=O)C(C)C)cc3n2C1			
1.7 to 500	COc1ccc2c(c1)C=C(c1c(C(=O)N3CCCN(C)CC3)cnn1C1CCC1)Cn1c-2c(C2CCCCC2)c2ccc(C(=O)NS(=O)(=O)C(C)C)cc21			
1.7 to 500	COc1ccc2c(c1)C=C(c1c(C(=O)O)cnn1C1CCC1)Cn1c-2c(C2CCCCC2)c2ccc(C(=O)NS(=O)(=O)CC(C)C)cc21			
1.7 to 500	COc1ccc2c(c1)C=C(c1c(C(=O)O)cnn1C1CCOCC1)Cn1c-2c(C2CCCCC2)c2ccc(C(=O)NS(=O)(=O)CC(C)C)cc21			
1.7 to 500	CCOC(=O)c1cnn(C2CCOCC2)c1C1=Cc2cc(OC)ccc2-c2c(C3CCCCC3)c3ccc(C(=O)NS(=O)(=O)C(C)C)cc3n2C1			
	COc1ccc2c(c1)C=C(c1c(C(=O)O)noc1C1CC1)Cn1c-2c(C2CCCCC2)c2ccc(C(=O)NS(=O)(=O)N(C)C)cc21	1.7 to 500		
1.7 to 500	COc1ccc2c(c1)C=C(c1c(C(=O)O)cnn1C1CCOCC1)Cn1c-2c(C2CCCCC2)c2ccc(C(=O)NS(=O)(=O)C(C)C)cc21			
	COc1ccc2c(c1)C=C(c1c(C(=O)N3CC4CCC3CN4)cnn1C1CCC1)Cn1c-2c(C2CCCCC2)c2ccc(C(=O)NS(=O)(=O)C(C)C)cc21 (centres unmarked)	1.7 to 500		

Compound	IC50 (HCV NS5B; class symbol) [nM]	EC50 (HCV replicon; class symbol) [nM]	IC50 (HCV NS5B; exact value) [nM]	EC50 (HCV replicon; exact value) [nM]
COc1ccc2c(c1)C=C(c1c(C(=O)N3C4CCC3CN(C)C4)cnn1C1CCOCC1)Cn1c-2c(C2CCCCC2)c2ccc(C(=O)NS(=O)(=O)CC(C)C)cc21	1.7 to 500	1.7 to 500		
COc1ccc2c(c1)C=C(c1c(C(=O)N3CCOCC3)cnn1-c1ccncc1C)Cn1c-2c(C2CCCCC2)c2ccc(C(=O)NS(=O)(=O)C(C)C)cc21	1.7 to 500	1.7 to 500		
CCN1C[C@H]2C[C@@H]1CN2C(=O)c1cnn(C2CCC2)c1C1=Cc2cc(OC)ccc2-c2c(C3CCCCC3)c3ccc(C(=O)NS(=O)(=O)C(C)C)cc3n2C1	1.7 to 500	1.7 to 500		
COc1ccc2c(c1)C=C(c1c(C(=O)N3C[C@@H](C)O[C@@H](C)C3)cnn1-c1nc3ccccc3[nH]1)Cn1c-2c(C2CCCCC2)c2ccc(C(=O)NS(=O)(=O)C(C)C)cc21	1.7 to 500	1.7 to 500	9	150
COc1ccc2c(c1)C=C(c1c(C(=O)N3C4CCCC3COC4)c(C)nn1C1CCC1)Cn1c-2c(C2CCCCC2)c2ccc(C(=O)NS(=O)(=O)C(C)C)cc21	1.7 to 500	1.7 to 500		
CCOC(=O)c1cnn(C2CC[N+](C)([O-])CC2)c1C1=Cc2cc(OC)ccc2-c2c(C3CCCCC3)c3ccc(C(=O)NS(=O)(=O)C(C)C)cc3n2C1 (centres unmarked)	1.7 to 500	1.7 to 500	5.1	220
COc1ccc2c(c1)C=C(c1c(C(=O)N3C[C@@H](C)O[C@@H](C)C3)cnn1-c1ccccc1)Cn1c-2c(C2CCCCC2)c2ccc(C(=O)NS(=O)(=O)C(C)C)cc21	1.7 to 500	1.7 to 500		
COc1ccc2c(c1)C=C(c1c(C(=O)N3C4CCC3CN(C)C4)cnn1C1CCOCC1)Cn1c-2c(C2CCCCC2)c2ccc(C(=O)NS(=O)(=O)C(C)C)cc21	1.7 to 500	1.7 to 500		
COc1ccc2c(c1)C=C(c1c(C(=O)N3C4CCC3CC(C)(O)C4)cnn1C1CCC1)Cn1c-2c(C2CCCCC2)c2ccc(C(=O)NS(=O)(=O)CC(C)C)cc21 (centres unmarked)	1.7 to 500	1.7 to 500		
COc1ccc2c(c1)C=C(c1c(C(=O)N3C[C@@H](C)N(C)[C@@H](C)C3)cnn1C1CCOCC1)Cn1c-2c(C2CCCCC2)c2ccc(C(=O)NS(=O)(=O)CC(C)C)cc21	1.7 to 500	1.7 to 500		
